According to patent publication US20140128472A1, “TREATMENT AND PREVENTION OF DISEASES RELATED TO OXIDATIVE STRESS” (UNIVERSITY OF PÉCS, priority 2011, published 2014):
Entries after “also recorded” stand apart in the source; their conditions may differ.

Tests used:
3T3-L1 adipocytes = assay: Insulin-dependent uptake of deoxy-D-glucose 2-[1 2-3H(N)] into 3T3-L1 adipocytes; assay type: cell-based, mouse
Experimental: (§1) Primary cultures of mouse embryo fibroblasts (3T3-L1) were purchased from ATCC (Manassas, US). Early passages of 3T3-L1 fibroblasts were cultured in Dulbecco's modified Eagle medium ((DMEM, Invitrogen, CAT number: 41966-029; Sigma Aldrich CAT number: D6046) supplemented with 10% Fetal Bovine Serum (Gibco, CAT number: 16170-078), 100 U/ml penicillin and 0.1 mg/ml streptomycin (Gibco, CAT number: 15070-063) and 398 nM p-, m-, or o-Tyr. DMEM contained 25 or 5 mM glucose (depending on the experiment), L-glutamine, and pyruvate. Cells were grown in a humidified incubator at 37° C. and 5% CO2. Differentiation medium consisted of DMEM supplemented with 10% Fetal Bovine Serum (FBS, Gibco, Csertex, Budapest, Hungary, CAT number: 10106-169) (FBS), to which a cocktail was added containing […] isobuthylmethylxanthine (Sigma Aldrich, CAT number: I 5879), 0.17 nM insulin (Sigma Aldrich, CAT number: I 9278) and 250 nM dexamethasone (Sigma Aldrich, CAT number: 861871). From Day 4 onward, cells were maintained in DMEM/10% FBS containing […] insulin with a media change every other day until experimental treatments were initiated. For all treatments, cells were incubated overnight in serum-deprived medium after 90% of the cell population reached the adipocyte phenotype.
Cells were incubated in glucose free DMEM (Gibco, Csertex, Hungary) for 30 minutes, then treated with 2, 20, 200 or 400 nmol/l insulin for 100 minutes. Simultaneously 1 μCi/ml deoxy-D-glucose 2-[1 2-3H(N)] (3.7×104 Bq/ml) (Izotóp Intézet, Hungary) was added to the plates for 100 minutes Cells were scraped into the medium and centrifuged for 5 minutes at 1000 rpm. The sediment was dissolved in 70 μl of lysis-buffer and glucose uptake was assessed by scintillation counting measuring 30 μl of the sample with a Beckman LS 5000 TD counter in counts per minute (CPM) for five minutes each, using an average activity as the outcome. Samples were frozen overnight at −70° C. and protein concentration was measured using a Hitachi spectrophotometer. Results were normalized for protein content (Kaddai2009).

Akt (PKB) = assay: Erythropoietin-dependent phosphorylation of Akt (PKB) in 3T3-L1 adipocytes (Western blot); assay type: cell-based, mouse; conditions: 25 mM glucose; various concentrations of erythropoietin
[1] = tested on: thoracic and abdominal aorta, renal and femoral arteries; assay: Insulin-induced relaxation of isolated arterial segments after oral tyrosine isomer supplementation of rats; assay type: in vivo, Sprague-Dawley rats
Experimental: The experiments were carried out with the permission of the Hungarian Local Animal Experiment Committee. Shortly after weaning male CFY rats (a strain of the Sprague-Dawley rat) were placed in individual cages and held on regular diet. After two hours of fasting animals (4-5 week-old, 80-140 g) were loaded with 1.76 mg/die para-, meta- or ortho-tyrosine (p-, m-, o-tyr; Sigma-Aldrich, Inc., St. Louis, Mo. 63178, USA) dissolved in saline or vehicle (saline only) by gavage (per os) six days of the week. After one month treatment, animals were either anaesthetized with ether and were decapitated with a guillotine or p-, m-, o-tyr and vehicle supplementation was discontinued (“washout” period) and they were sacrificed […] (FIG. 8.A). The descending thoracic and abdominal aorta, renal and femoral arteries were removed and cleaned from connective tissue (FIG. 19). Sections were immediately hydrolyzed for HPLC analysis or were used for vascular reactivity studies.
In further tyrosine isomer incorporation studies when effects of chronic oral p-Tyr and o-Tyr supplementation of rats on the o-Tyr level and insulin-induced relaxation of isolated arterial segments were studied, 18 Male Sprague-Dawley rats (5-6 week-old) were used. Rats were orally supplied with either 1.76 mg/die of p-Tyr or o-Tyr or vehicle during six days per week for four weeks. […] At the end of four-week treatment, HPLC and vasomotor studies were performed. In another group of rats, p-Tyr/o-Tyr supplementation was discontinued for four weeks (“washout” period), after which they were sacrificed for HPLC and vasomotor studies.
The modified method of Fésüs et al. (Fésüs2007) was used. The distal parts of the vessels were dissected into 2 mm long segments in ice-cold Krebs buffer and rings were mounted on two stainless steel wires (40 μm in diameter) in a Danish Multimyograph Model 610M (DMT-USA Inc., Atlanta, Ga., USA). Vessels were bathed in Krebs buffer (containing 119 mM NaCl, 4.7 mM KCl, 1.2 mM KH2PO4, 25 mM NaHCO3, 1.2 mM Mg2SO4, 11.1 mM glucose, 1.6 mM CaCl2*2H2O, pH 7.4) and gassed with 5% CO2 and 95% O2 at 37° C. The resting tension/internal circumference relationship for each vessel was determined and then the internal circumference was set to 0.9×L100, where L100 is the internal circumference the vessel would have had in vivo when relaxed under a transmural pressure of 100 mmHg After this normalization procedure vessels were allowed to stabilize for 30 min, and then isometric tension was continuously recorded. Rings were preconstricted with 100 nM epinephrine. After reaching a stabile contraction plateau, relaxant responses to increasing doses of insulin were assessed. The rate of relaxation was expressed as percentage of the contraction evoked by epinephrine (100%). Para-, meta-, ortho-tyrosine or vehicle were added to the vessel chamber 10 minutes before the addition of epinephrine and 30 minutes before the addition of insulin.

Akt (protein kinase B) = assay: Insulin-induced phosphorylation of Akt in 3T3-L1 adipocytes (Western blot); assay type: cell-based, mouse; conditions: cells grown on m-Tyr or o-Tyr; insulin 200 and 400 nmol/l
Experimental: as §1
Following the treatment cells were washed twice with Saline (4° C.) to remove any trace of the medium, then exposed to 80 μL lysis buffer/plate, containing 1.15% Triton X, 1M Trisbase, pH 7.4, 0.5 M EDTA, pH 8, 0.2 M EGTA, pH 7, 0.1 M dithiothreitol (DTT), 5 mg/ml phenylmethylsulfonyl fluoride (PMSF), 0.1 M Na3VO4, 5 mg/ml leupeptin, 5 mg/ml aprotinin, Phoshatase Inhibitor Coctail 1 and 2 (Sigma Aldrich, CAT number: P2850 and P5726). Adypocytes were scraped off mechanically and then frozen at −70° C.
The samples of EC lysates were sonicated (2 min) and centrifuged (10 min, 13,000 rpm, at 4° C.). Protein content of samples was determined by the Bradford method using bovine serum albumin as a standard Bio-Rad Benchmark Plus. Samples were solubilized in a buffer of 100 mM Tris-HCl (pH 6.8), 4.0% sodium dodecyl sulphate (SDS), 20% glycerol, 200 mM DTT, and 0.2% bromophenol blue. […]
Membranes were incubated overnight with the immunoglobulin G (IgG) monoclonal antibodies diluted to 1:1000 in TBS-T (0.1%), containing 5% bovine serum (BS). […] Blots were detected using enhanced chemiluminescence (ECL; Pierce Biotech, Bio-Rad, Budapest, Hungary). Computerized densitometry (integrated optical density) of the specific bands was analyzed with Scion Image for Windows Software. […]

## N[C@@H](Cc1cccc(O)c1)C(=O)O [m-Tyr, Meta-L-tyrosine]
3T3-L1 adipocytes; 72-72 mg/l m-Tyr or o-Tyr and p-Tyr, insulin 400 nM
  Insulin-induced glucose uptake at equimolar concentrations with p-Tyr: fully inhibit insulin-induced glucose uptake; also recorded: insulin had no effect on glucose uptake at all
3T3-L1 adipocytes; cells grown 11 days on medium with the tyrosine isomer + 5 mM glucose, insulin 2, 20, 200, 400 nM
  Insulin-dependent deoxy-D-glucose uptake: no insulin effect could be verified
3T3-L1 adipocytes; cells grown on m-Tyr- or o-Tyr-containing medium (72 mg/l) for different time periods, no insulin
  Baseline glucose uptake: did not show a marked change
3T3-L1 adipocytes; m-Tyr or o-Tyr 72 mg/l for different time periods, insulin 400 nM, time-dependent manner
  Insulin-induced glucose uptake, time dependence: blocked
3T3-L1 adipocytes; m-Tyr or o-Tyr 2.25-72 mg/l with p-Tyr 72 mg/l, insulin 400 nM
  Ability to inhibit insulin-induced glucose uptake, dependence on concentration: concentration-dependent
Akt (PKB)
  EPO-dependent Akt phosphorylation: inhibited the normal increase in the Akt phosphorylation
[1]; 4th week, 1.76 mg/die per os, compared to control
  Insulin-induced relaxation, abdominal aorta, femoral (and renal) arteries: significantly diminished response to insulin
[1]; 4th week, 1.76 mg/die per os, compared to control/other groups
  Insulin-induced relaxation, thoracic aorta: did not observe any significant further decline of response to insulin
[1]; 8th week, 4 weeks washout, all segments
  Chronic effects on insulin-induced vasorelaxation after washout: completely abolished
Akt (protein kinase B)
  Insulin-induced Akt phosphorylation: inhibited the insulin-induced Akt-phosphorylation; also recorded: could not be significantly enhanced by insulin
